Our source for the IC50 values is patent US20100317850A1 (priority 2008, published 2010).

For the test, the system named is Aβ42 production. Put plainly: Quantification of Aβ peptide in culture of neurons from rat fetus brain (Aβ ELISA). Conditions: Neuron, 72 h; rat primary neuronal culture (cerebral cortex, embryonic day 18 Wistar rats); medium collected three days after addition of the compound; Aβx-42 ELISA; read-out: Aβ42 production reducing effect IC50. The test is classed as cell-based. Put shortly:
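Primary cortical neurons from embryonic day 18 Wistar rats were cultured 4 days, then exposed to compound in Neurobasal/B27 without 2-ME, final DMSO ≤1%. After three days, medium was collected and Aβx-42 measured undiluted by sandwich ELISA.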
For orientation: In an ELISA, binding on a coated surface is turned into a signal by an enzyme label.

Each structure is given as a SMILES string.

`COC[C@H]1C[C@]2(c3cc(NC(=O)c4cnc(C(F)F)cn4)ccc3F)N=C(N)SC[C@@H]2CO1` [Example 40, N-[3-((4aS,7R,8aS)-2-amino-7-methoxymethyl-4a,5,7,8-tetrahydro-4H-6-oxa-3-thia-1-azanaphthalen-8a-yl)-4-fluorophenyl]-5-difluoromethylpyrazine-2-carboxamide]: the IC50 – broadly, the concentration that gives 50% inhibition – came out at 26 nM.
`N#Cc1ccc(C(=O)Nc2ccc(F)c([C@]34C[C@H](F)C[C@H]3CSC(N)=N4)c2)nc1` (relative stereo) [Example 91, (+)-N-[3-((4aR*,6R*,7aS*)-2-amino-6-fluoro-4a,5,6,7-tetrahydro-4H-cyclopenta[d][1,3]thiazin-7a-yl)-4-fluorophenyl]-5-cyanopyridine-2-carboxamide]: the IC50 worked out at 1.4 nM.
Consider `NC1=N[C@@]2(c3cc(NC(=O)c4ncccn4)ccc3F)CCCC[C@H]2CS1` [Example 121], for which the IC50 was found to be 263 nM.
`CO[C@H]1C[C@H]2CSC(N)=N[C@@]2(c2cc(NC(=O)c3ccc(C#N)cn3)ccc2F)C1` (relative stereo) [Example 31, (+)-N-[3-((4aR*,6S*,7aS*)-2-amino-6-methoxy-4a,5,6,7-tetrahydro-4H-cyclopenta[d][1,3]thiazin-7a-yl)-4-fluorophenyl]-5-cyanopyridine-2-carboxamide]: the IC50 amounted to 4 nM.
In the case of `NC1=N[C@@]2(c3cc(NC(=O)c4ncc(F)cc4F)ccc3F)CCOC[C@H]2CS1` [Example 200] it was 44 nM; in that of `NC1=N[C@@]2(c3cccc(-c4cccnc4F)c3)CN(C(=O)C3CC3)C[C@H]2CS1` [Example 84], 893 nM; in that of `NC1=N[C@@]2(c3cc(-c4cccnc4F)c(F)cc3F)CCCC[C@H]2CS1` (racemic) [Example 245, (±)-(4aR*,8aS*)-8a-[2,4-difluoro-5-(2-fluoropyridin-3-yl)phenyl]-4a,5,6,7,8,8a-hexahydro-4H-benzo[d][1,3]thiazin-2-ylamine], 1160 nM.
In the case of `C[C@H]1OC[C@]2(c3cc(NC(=O)c4ccncn4)ccc3F)N=C(N)SC[C@H]12` (relative stereo) [Example 60, N-[3-((4aS*,5R*,7aS*)-2-amino-5-methyl-4a,5-dihydro-4H-furo[3,4-d][1,3]thiazin-7a-yl)-4-fluorophenyl]-pyrimidine-4-carboxamide] it was 12 nM; in that of `NC1=N[C@@]2(c3cc(NC(=O)c4nccs4)ccc3F)CCC[C@H]2CS1` (single isomer, unassigned) [Example 137, N-[3-((4aR*,7aS*)-2-amino-4a,5,6,7-tetrahydro-4H-cyclopenta[d][1,3]thiazin-7a-yl)-4-fluorophenyl]-thiazole-2-carboxamide], 47 nM; in that of `NC1=N[C@@]2(c3cc(NC(=O)c4ncc(Cl)cc4Cl)ccc3F)COC[C@H]2CS1` (single isomer, unassigned) [Example 189, N-[3-((4aS*,7aS*)-2-amino-4a,5-dihydro-4H-furo[3,4-d][1,3]thiazin-7a-yl)-4-fluorophenyl]-3,5-dichloropyridine-2-carboxamide], 8 nM.
For `COC[C@H]1OC[C@]2(c3cc(NC(=O)c4ccc(C#N)cn4)ccc3F)N=C(N)SC[C@H]12` [Example 66, N-[3-((4aS,5S,7aS)-2-amino-5-methoxymethyl-4a, 5-dihydro-4H-furo[3,4-d][1,3]thiazin-7a-yl)-4-fluorophenyl]-5-cyanopyridine-2-carboxamide], the IC50 was found to be 1.3 nM.
As to `NC1=N[C@@]2(c3cc(NC(=O)c4ncc(Br)cn4)ccc3F)CCOC[C@H]2CS1` [Example 199], the IC50 was found to be 12 nM.
For `NC1=N[C@@]2(c3cccc(-c4cccnc4F)c3)CN(c3cnccn3)C[C@H]2CS1` [Example 87], the half-inhibitory concentration (IC50) was 62 nM.
Turning to `NC1=N[C@@]2(c3cc(NC(=O)c4ncccc4F)ccc3F)CCCC[C@H]2CS1` [Example 259], the 50% inhibitory concentration (IC50) came to 372 nM.
Turning to `CO[C@@H]1CC[C@]2(c3cc(NC(=O)c4ccc(C#N)cn4)ccc3F)N=C(N)SC[C@@H]2C1` (relative stereo) [Example 206, N-[3-((4aR*,6R*,8aS*)-2-amino-6-methoxy-4,4a,5,6,7,8-hexahydrobenzo[d][1,3]thiazin-8a-yl)-4-fluorophenyl]-5-cyanopyridine-2-carboxamide], the IC50 turned out to be 2 nM.
Consider `CO[C@@H]1C[C@H]2CSC(N)=N[C@@]2(c2cc(NC(=O)c3cnc(OCF)cn3)ccc2F)C1` (relative stereo) [Example 96, (+)-N-[3-((4aR*,6R*,7aS*)-2-amino-6-methoxy-4a,5,6,7-tetrahydro-4H-cyclopenta[d][1,3]thiazin-7a-yl)-4-fluorophenyl]-5-fluoromethoxypyrazine-2-carboxamide], for which the IC50 is 1 nM.
`CC[C@H]1OC[C@]2(c3cc(NC(=O)c4cnc(OC(F)F)cn4)ccc3F)N=C(N)SC[C@H]12` (relative stereo) [Example 50, N-[3-((4aS*,5R*,7aS*)-2-amino-5-ethyl-4a,5-dihydro-4H-furo[3,4-d][1,3]thiazin-7a-yl)-4-fluorophenyl]-5-difluoromethoxypyrazine-2-carboxamide]: the IC50 stood at 0.9 nM.
Consider `NC1=N[C@@]2(c3cc(NC(=O)c4ncccc4F)ccc3F)CCCCC[C@H]2CS1` [Example 251], for which the IC50 was 120 nM.
As for `NC1=N[C@@]2(c3cccc(-c4cccnc4F)c3)CN(c3ccccc3)C[C@H]2CS1` (racemic) [Example 36, (±)-(4aR,7aS)-7a-[3-(2-fluoro-pyridin-3-yl)phenyl]-6-phenyl-4,4a,5,6,7,7a-hexahydropyrrolo[3,4-d][1,3]thiazin-2-ylamine], the half-maximal inhibitory concentration (IC50) was 384 nM.
For `NC1=N[C@@]2(c3cc(NC(=O)c4ncc(Cl)cc4Cl)ccc3F)CCC[C@H]2CS1` (single isomer, unassigned) [Example 180, N-[3-((4aR*,7aS*)-2-amino-4a,5,6,7-tetrahydro-4H-cyclopenta[d][1,3]thiazin-7a-yl)-4-fluorophenyl]-3,5-dichloropyridine-2-carboxamide], the IC50 worked out at 3 nM.
Turning to `CC[C@H]1OC[C@]2(c3cc(NC(=O)c4cnc(OCF)cn4)ccc3F)N=C(N)SC[C@H]12` (relative stereo) [Example 52, N-[3-((4aS*, 5R*,7aS*)-2-amino-5-ethyl-4a,5-dihydro-4H-furo[3,4-d][1,3]thiazin-7a-yl)-4-fluorophenyl]-5-fluoromethoxypyrazine-2-carboxamide], the IC50 was 2 nM.
To `N#Cc1ccc(C(=O)Nc2ccc(F)c([C@]34CO[C@H](CF)[C@H]3CSC(N)=N4)c2)nc1` [Example 164, N-[3-((4aS,5S,7aS)-2-amino-5-fluoromethyl-4a,5-dihydro-4H-furo[3,4-d][1,3]thiazin-7a-yl)-4-fluorophenyl]-5-cyanopyridine-2-carboxamide] belongs 1 nM.
As to `NC1=N[C@@]2(c3cc(NC(=O)c4ccc(OCC(F)F)cn4)ccc3F)CCC[C@H]2CS1` (single isomer, unassigned) [Example 182, N-[3-((4aR*,7aS*)-2-amino-4a,5,6,7-tetrahydro-4H-cyclopenta[d][1,3]thiazin-7a-yl)-4-fluorophenyl]-5-(2,2-difluoroethoxy)-pyridine-2-carboxamide], the concentration for half-maximal inhibition (IC50) came out at 90 nM.
For `CO[C@H]1CC[C@]2(c3cc(NC(=O)c4cnc(C(F)F)cn4)ccc3F)N=C(N)SC[C@@H]2C1` [Example 205], the IC50 is 25 nM.
As for `Cn1cc(-c2ccc(C(=O)Nc3ccc(F)c([C@]45CCC[C@H]4CSC(N)=N5)c3)nc2)cn1` [Example 239], the half-inhibitory concentration (IC50) came out at 238 nM.
For the compound `NC1=N[C@@]2(c3cc(NC(=O)c4ccccn4)ccc3F)CCCC[C@H]2CS1` [Example 255], the 50% inhibitory concentration (IC50) came to 158 nM.
To `CO[C@H]1CC[C@]2(c3cc(NC(=O)c4cnc(OC(F)F)cn4)ccc3F)N=C(N)SC[C@H]12` (relative stereo) [Example 64, N-[3-((4aS*,5S*,7aS*)-2-amino-5-methoxy-4a,5,6,7-tetrahydro-4H-cyclopenta[d][1,3]thiazin-7a-yl)-4-fluorophenyl]-5-difluoromethoxypyrazine-2-carboxamide] belongs 8 nM.
As to `NC1=N[C@@]2(c3cc(NC(=O)c4cnc(OCC(F)(F)F)cn4)ccc3F)CCC[C@H]2CS1` (single isomer, unassigned) [Example 178, N-[3-((4aR*,7aS*)-2-amino-4a,5,6,7-tetrahydro-4H-cyclopenta[d][1,3]thiazin-7a-yl)-4-fluorophenyl]-5-(2,2,2-trifluoroethoxy)-pyrazine-2-carboxamide], the IC50 was found to be 44 nM.
Consider `NC1=N[C@@]2(c3cc(NC(=O)c4ccc(Cl)cn4)ccc3F)CCOC[C@H]2CS1` (relative stereo) [Example 30, N-[3-((4aS*,8aS*)-2-amino-4a,5,7,8-tetrahydro-4H-6-oxa-3-thia-1-azanaphthalen-8a-yl)-4-fluorophenyl]-5-chloropyridine-2-carboxamide], for which the IC50 was 11 nM.
Consider `NC1=N[C@@]2(c3cccc(-c4cccnc4F)c3)CN(C(=O)c3ccccc3)C[C@H]2CS1` [Example 82], for which the 50% inhibitory concentration (IC50) is 425 nM.
With `NC1=N[C@@]2(c3cc(NC(=O)c4ccc(Cl)cn4)ccc3F)CO[C@H](CF)[C@H]2CS1` [Example 71, N-[3-((4aS,5S,7aS)-2-amino-5-fluoromethyl-4a,5-dihydro-4H-furo[3,4-d][1,3]thiazin-7a-yl)-4-fluorophenyl]-5-chloropyridine-2-carboxamide], the IC50 is 1 nM.
Regarding `NC1=N[C@@]2(c3cc(NC(=O)c4ccc(F)cn4)ccc3F)CCOC[C@H]2CS1` (single isomer, unassigned) [Example 187, N-[3-((4aS*,8aS*)-2-amino-4a,5,7,8-tetrahydro-4H-6-oxa-3-thia-1-azanaphthalen-8a-yl)-4-fluorophenyl]-5-fluoropyridine-2-carboxamide], the half-maximal inhibitory concentration (IC50) turned out to be 54 nM.
As for `NC1=N[C@@]2(c3cc(NC(=O)c4ccc(Br)cn4)ccc3F)CCCC[C@H]2CS1` [Example 254], the 50% inhibitory concentration (IC50) is 43 nM.
To `NC1=N[C@@]2(c3cc(NC(=O)c4ccc(C5CC5)cn4)ccc3F)CCC[C@H]2CS1` [Example 134] belongs 86 nM.
